Laboratory results: patent US12516044B2, “Heterocyclic compounds as immunomodulators” (Incyte Corporation, priority 2015, dated 2026)
pIC50: −log10 of the molar value.

What follows are compounds tested against T1, PD-1/PD-L1 protein/protein interaction (Homo sapiens, UniProt Q9NZQ7) (assay: PD-1/PD-L1 Homogeneous Time-Resolved Fluorescence (HTRF) Binding Assay). Settings: recombinant human PD-L1 (19-238) His-tag and human PD-1 (25-167) Fc tag; 25° C., PBS pH 7.4.
T1 construct: Recombinant human PD-L1 protein (19-238) with a His-tag at the C-terminus; purchased AcroBiosystems PD1-H5229 (PD-L1-His); PD1-H5257 (PD-1-Fc)
T1 sequence (Q9NZQ7 19-238): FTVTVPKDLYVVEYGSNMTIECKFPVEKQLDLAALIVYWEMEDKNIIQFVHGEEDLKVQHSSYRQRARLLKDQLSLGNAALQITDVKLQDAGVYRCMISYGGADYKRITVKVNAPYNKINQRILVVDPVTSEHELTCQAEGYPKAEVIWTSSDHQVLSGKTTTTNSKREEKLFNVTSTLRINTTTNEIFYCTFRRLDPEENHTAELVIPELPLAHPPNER
Protocol: Example A. PD-1/PD-L1 Homogeneous Time-Resolved Fluorescence (HTRF) Binding Assay
The assays were conducted in a standard black 384-well polystyrene plate with a final volume of 20 μL. Inhibitors were first serially diluted in DMSO and then added to the plate wells before the addition of other reaction components. The final concentration of DMSO in the assay was 1%. The assays were carried out at 25° C. in the PBS buffer (pH 7.4) with 0.05% Tween-20 and 0.1% BSA. Recombinant human PD-L1 protein (19-238) with a His-tag at the C-terminus was purchased from AcroBiosystems (PD1-H5229). Recombinant human PD-1 protein (25-167) with Fc tag at the C-terminus was also purchased from AcroBiosystems (PD1-H5257). PD-L1 and PD-1 proteins were diluted in the assay buffer and 10 μL was added to the plate well. Plates were centrifuged and proteins were preincubated with inhibitors for 40 minutes. The incubation was followed by the addition of […] of HTRF detection buffer supplemented with Europium cryptate-labeled anti-human IgG (PerkinElmer-AD0212) specific for Fc and anti-His antibody conjugated to SureLight®-Allophycocyanin (APC, PerkinElmer-AD0059H). After centrifugation, the plate was incubated at 25° C. for 60 min. before reading on a PHERAstar FS plate reader (665 nm/620 nm ratio). Final concentrations in the assay were […] PD1, 10 nM PD-L1, 1 nM europium anti-human IgG and 20 nM anti-His-Allophycocyanin. IC50 determination was performed by fitting the curve of percent control activity versus the log of the inhibitor concentration using the GraphPad Prism 5.0 software.

Compound	pIC50
Cc1c(NC(=O)c2ncc(CNCCO)cc2N(C)C)cccc1-c1ccccc1 [Example 21, 3-(dimethylamino)-5-{[(2-hydroxyethyl)amino]methyl}-N-(2-methylbiphenyl-3-yl)pyridine-2-carboxamide]	6.00 to 7.00
Cc1c(NC(=O)c2cc(OCc3cccnc3)ncn2)cccc1-c1ccccc1 [Example 24, N-(2-methylbiphenyl-3-yl)-6-(pyridin-3-ylmethoxy)pyrimidine-4-carboxamide]	6.00 to 7.00
Cc1c(NC(=O)c2cnccn2)cccc1-c1ccccc1 [Example 26, N-(2-methylbiphenyl-3-yl)pyrazine-2-carboxamide]	7.00 to 8.00
Cc1c(NC(=O)c2ccncn2)cccc1-c1ccccc1 [Example 27, N-(2-methylbiphenyl-3-yl)pyrimidine-4-carboxamide]	7.00 to 8.00
Cc1c(NC(=O)c2ncccn2)cccc1-c1ccccc1 [Example 28, N-(2-methylbiphenyl-3-yl)pyrimidine-2-carboxamide]	6.00 to 7.00
Cc1c(NC(=O)c2cccnn2)cccc1-c1ccccc1 [Example 29, N-(2-methylbiphenyl-3-yl)pyridazine-3-carboxamide]	6.00 to 7.00
Cc1c(NC(=O)c2ccnc(OCc3cccnc3)n2)cccc1-c1ccccc1 [Example 30, N-(2-methylbiphenyl-3-yl)-2-(pyridin-3-ylmethoxy)pyrimidine-4-carboxamide]	6.00 to 7.00
Cc1c(NC(=O)c2cc(-c3ccncc3)c(CNCCO)cn2)cccc1-c1ccccc1 [Example 31, 5-{[(2-hydroxyethyl)amino]methyl}-N-(2-methylbiphenyl-3-yl)-4,4′-bipyridine-2-carboxamide]	7.00 to 8.00

The remaining lines, values ahead:

pIC50	Compound
7.00 to 8.00	Cc1c(NC(=O)c2ncc(CNCCO)cc2Cl)cccc1-c1ccccc1 [Example 16, 3-chloro-5-{[(2-hydroxyethyl)amino]methyl}-N-(2-methylbiphenyl-3-yl)pyridine-2-carboxamide]
7.00 to 8.00	Cc1c(NC(=O)c2ncc(CNCCO)cc2F)cccc1-c1ccccc1 [Example 17, 3-fluoro-5-{[(2-hydroxyethyl)amino]methyl}-N-(2-methylbiphenyl-3-yl)pyridine-2-carboxamide]
7.00 to 8.00	Cc1c(NC(=O)c2cc(OCc3cccc(C#N)c3)c(CNCCO)cn2)cccc1-c1ccccc1 [Example 18, 4-[(3-cyanobenzyl)oxy]-5-{[(2-hydroxyethyl)amino]methyl}-N-(2-methylbiphenyl-3-yl)pyridine-2-carboxamide]
7.00 to 8.00	Cc1c(NC(=O)c2cc(OCc3cccnc3)c(CNCCO)cn2)cccc1-c1ccccc1 [Example 19, 5-{[(2-hydroxyethyl)amino]methyl}-N-(2-methylbiphenyl-3-yl)-4-(pyridin-3-ylmethoxy)pyridine-2-carboxamide]
7.00 to 8.00	Cc1c(NC(=O)c2cc(OCc3ccccn3)c(CNCCO)cn2)cccc1-c1ccccc1 [Example 20, 5-{[(2-hydroxyethyl)amino]methyl}-N-(2-methylbiphenyl-3-yl)-4-(pyridin-2-ylmethoxy)pyridine-2-carboxamide]
7.00 to 8.00	Cc1c(NC(=O)c2cc(CNCCO)ccn2)cccc1-c1ccccc1 [Example 23, 4-{[(2-hydroxyethyl)amino]methyl}-N-(2-methylbiphenyl-3-yl)pyridine-2-carboxamide]
7.00 to 8.00	Cc1c(NC(=O)c2cc(C#N)ccn2)cccc1-c1ccccc1 [Example 25, 4-cyano-N-(2-methylbiphenyl-3-yl)pyridine-2-carboxamide]
≥ 8.00	Cc1cc(C(=O)Nc2cccc(-c3ccccc3)c2C)ncc1CN1CCCC[C@H]1C(=O)O [Example 32, (2S)-1-[(4-methyl-6-{[(2-methylbiphenyl-3-yl)amino]carbonyl}pyridin-3-yl)methyl]piperidine-2-carboxylic Acid]
≥ 8.00	Cc1cc(C(=O)Nc2cccc(-c3ccccc3)c2C)ncc1CNCCO [Example 33, 5-{[(2-hydroxyethyl)amino]methyl}-4-methyl-N-(2-methylbiphenyl-3-yl)pyridine-2-carboxamide]
